This passage reports MIC results from patent publication US4859773A, “Preparation of 1,8-bridged 4-quinoline-3-carboxylic acids” (Bayer Aktiengesellschaft, priority 1985, dated 1989).

In brackets after ≈: the same amount, converted by molar mass.

Common to all, as to test: MIC, agar dilution test (Isosensitest medium), Denley multipoint inoculator
Holding throughout (assay type): cell-based

Assay [1] concerns E. coli A 261. Particulars: Escherichia coli, A261. The text has this: (§1) Agar dilution test (Isosensitest medium)
(§2) Denley multipoint inoculator

In assay [2] the test system is E. coli Neumann. Particulars: Escherichia coli.
From the text: as §1, §2

In assay [3] the test system is E. coli T 7. Particulars: Escherichia coli, T7.
From the text: as §1, §2

Assay [4] relates to Klebsiella 8085.
From the text: as §1, §2

With `Cc1c(F)cc2c(=O)c(C(=O)O)cn3c2c1OCC3` [Example 61], the MIC in assay [1] worked out at 0.5 µg/mL (≈ 1.9 µM); in assay [2], 0.125 µg/mL (≈ 0.475 µM); in assay [3] it was 0.5 µg/mL (≈ 1.9 µM); in assay [4], 0.125 µg/mL (≈ 0.475 µM).
